Reference: ChEMBL document CHEMBL3856207, “Kinetic, thermodynamic and structural analysis of tamiphosphor binding to neuraminidase of H1N1 (2009) pandemic influenza” (Eur J Med Chem, 2016)
The source made the active and inactive calls. No cut-off for these calls is given here.

System: not listed separately
Assay: Inhibition of Influenza A virus (A/California/07/2009(H1N1)) recombinant wild type N-terminal FLAG-tagged neuraminidase ectodomain (82 to 469 residues) transfected in Drosophila Schneider S2 cells using 4-MUNANA as substrate after 20 mins by fluorometric method

| Structure (SMILES) | Ki |
| --- | --- |
| CCC(CC)O[C@@H]1C=C(P(=O)(O)O)C[C@H](NC(=N)N)[C@H]1NC(C)=O | 140 nM |
| CCC(CC)O[C@@H]1C=C(P(=O)(O)OC)C[C@H](N)[C@H]1NC(C)=O | 39 nM |
| CCC(CC)O[C@@H]1C=C(C(=O)O)C[C@H](NC(=N)N)[C@H]1NC(C)=O | 46 nM |
| CCC(CC)O[C@@H]1C=C(P(=O)(O)O)C[C@H](N)[C@H]1NC(C)=O [TAMIPHOSPHOR] | 26 nM |

System: S2
Assay: Binding affinity to Influenza A virus (A/California/07/2009(H1N1)) recombinant wild type N-terminal FLAG-tagged neuraminidase catalytic domain transfected in Drosophila Schneider S2 cells at 76 to 93 uM by isothermal titration calorimetric method

| Structure (SMILES) | Activity |
| --- | --- |
| CCC(CC)O[C@@H]1C=C(C(=O)O)C[C@H](N)[C@H]1NC(C)=O [OSELTAMIVIR CARBOXYLATE] | Active |
| CCC(CC)O[C@@H]1C=C(P(=O)(O)O)C[C@H](N)[C@H]1NC(C)=O [TAMIPHOSPHOR] | Active |
